Experimental data from the NIST ThermoML archive (doi:10.1021/je2002368).

Columns and labels:
[1] = refractive index (Na D-line) (dimensionless); settings: 101.33 kPa, Liquid, Standard Abbe refractometry
[2] = 101.33 kPa, Liquid; for viscosity: Concentric cylinders viscometry; for mass density: Vibrating tube method

CCn1cc[n+](C)c1.NCC(=O)[O-] [1-ethyl-3-methylimidazolium ammonioacetate]
Settings	mass density, [2] [kg/m3]	refractive index, [1]	viscosity, [2] [mPa·s]
293.15 K	1158	1.50628	80.37
298.15 K	1154.7	1.50473	61.51
303.15 K	1151.6	1.50313	47.75
308.15 K	1148.5	1.50154	37.79
313.15 K	1145.3	1.49988	30.31
318.15 K	1142.2	1.49827	24.89
323.15 K	1139	1.49657	20.64
328.15 K	1135.8	1.49488	17.33
333.15 K	1132.7	1.49321	14.72
338.15 K	1129.5	–	12.64
343.15 K	1126.3	–	10.94
348.15 K	1123.2	–	9.55
353.15 K	1120.1	–	8.38

CCn1cc[n+](C)c1.O=C([O-])[C@@H]1CCCN1 [1-ethyl-3-methyl-1H-imidazolium L-prolinate]
Settings	mass density, [2] [kg/m3]	refractive index, [1]	viscosity, [2] [mPa·s]
293.15 K	1158.14	1.51523	626.95
298.15 K	1155.08	1.51372	426.12
303.15 K	1152	1.51229	295.17
308.15 K	1148.9	1.51073	210.2
313.15 K	1145.78	1.50924	153.57
318.15 K	1142.64	1.50774	114.27
323.15 K	1139.5	1.50621	87.05
328.15 K	1136.36	1.50454	67.61
333.15 K	1133.22	1.5031	54.04
338.15 K	1130.08	–	43.43
343.15 K	1126.93	–	35.47
348.15 K	1123.79	–	29.36
353.15 K	1120.63	–	24.5

CC[n+]1ccn(C)c1.N[C@@H](CO)C(=O)[O-] [3-ethyl-1-methyl-1H-imidazolium L-serinate]
Settings	mass density, [2] [kg/m3]	refractive index, [1]	viscosity, [2] [mPa·s]
293.15 K	1198.3	1.51205	611.87
298.15 K	1195.2	1.51069	410.86
303.15 K	1191.9	1.50932	279.82
308.15 K	1188.6	1.50791	196.7
313.15 K	1185.2	1.50654	142.28
318.15 K	1182	1.50511	105.8
323.15 K	1178.9	1.50372	80.49
328.15 K	1175.8	1.50224	62.48
333.15 K	1172.6	1.50083	49.31
338.15 K	1169.5	–	39.63
343.15 K	1166.3	–	32.36
348.15 K	1162.9	–	26.82
353.15 K	1159.8	–	22.47

CCn1cc[n+](C)c1.C[C@H](N)C(=O)[O-] [1-ethyl-3-methylimidazolium L-alaninate]
Settings	mass density, [2] [kg/m3]	refractive index, [1]	viscosity, [2] [mPa·s]
293.15 K	1139.2	1.50586	235.36
298.15 K	1136.1	1.5041	171.19
303.15 K	1133	1.50246	126.6
308.15 K	1129.8	1.50072	93.87
313.15 K	1126.6	1.49908	72.02
318.15 K	1123.5	1.49735	56.62
323.15 K	1120.3	1.49568	45.13
328.15 K	1117.2	1.49395	36.56
333.15 K	1114	1.49228	30.1
338.15 K	1110.9	–	25.02
343.15 K	1107.8	–	21.21
348.15 K	1104.7	–	18.05
353.15 K	1101.6	–	15.51
